Test system: Hep G2 cells
Assay: Cellstain double staining (Live/Dead, calcein AM / propidium iodide) viability after freeze-drying and rehydration
Type: cell-based, human
Conditions: 24 h trehalose incubation, same lyoprotectants, liquid nitrogen freezing; with vs without GrowDex
Text: One method to evaluate the cell membrane integrity is enzyme activity assays combined with nuclei staining. Calcein AM (acetoxy methyl) ester and propidium iodide are suitable for viability assessment of different microbes. Calcein AM is itself a non-fluorescent and cell membrane permeable molecule, but undergoes an esterase reaction when in cytosol if correct enzymes are available and transforms into calcein, which is a fluorescent molecule. This way, the fluorescent cells can be visually observed with fluorescence microscopy or a plate reader.
Therefore, only necrotic cells are affected, whereas apoptotic and healthy cells not. Once in the cytosol, the PI binds to any available DNA and RNA, including the DNA in nucleus. When excited with 535 nm light, an emission of 617 nm can be observed on the areas of dead cells.
Three lyoprotectants were chosen for testing with GrowDex®. First, the cells were cultivated regularly for 4 days either in 2D or 3D with 0.8% (w/w) of GrowDex®, and then the medium was changed. […] Then, the systems were freeze-dried and rehydrated and evaluated for viability with Cellstain double staining and fluorescence microscopy. […]
Autofluorescence was ruled out by killed control samples that were stained and imaged at the same time showing no green fluorescence in identical settings. […]

## OC[C@H]1O[C@H](O[C@H]2O[C@H](CO)[C@@H](O)[C@H](O)[C@H]2O)[C@H](O)[C@@H](O)[C@@H]1O [trehalose, α-D-glucopyranosyl-(1→1)-α-D-glucopyranoside]
  Live/dead dual staining outcome after freeze-drying and rehydration: the cells did not survive

Source: US11969505B2, “Method for freeze-drying cells in a hydrogel comprising nanofibrillar cellulose and freeze-dried cells in an aerogel comprising nanofibrillar cellulose” (UPM-KYMMENE CORPORATION, priority 2016, dated 2024)
